Where a name gives a salt, the structure may show the parent alone.
Test: Permeation through a silicone membrane, pH effect (side-by-side permeation apparatus)
Type: in vitro ADME
Settings: 32° C.
Source text: A further study investigated the permeation of minocycline from a liquid formulation comprising 0.47% (w/w) minocycline HCl dissolved in water through a silicone membrane as function of the pH. The diffusion of tetracycline from commercially available Topicycline® (0.2% w/w tetracycline HCl) across a silicone membrane was also compared under equivalent conditions. The permeation apparatus used (FIG. 1) was as follows. The apparatus consisted of two water-jacketed compartments 1 and 2, separated by a standard silicone membrane 3 (SMEM001 002, Esco Rubber, Barloworld Scientific Ltd, UK), which were clamped together. Each water-jacketed compartment 1 and 2 had respective water inlets 4 and water outlets 5 on the respective outer compartments 6, said outer compartments containing water. Inner compartment 7 for containing sample and inner compartment 8 for containing dissolution medium are also shown. The liquid formulation (or the Topicycline®) was immediately introduced into the inner compartment 7 via port 10. A pre-heated 0.9% saline solution (32° C.) was introduced via the sampling port 9 in the inner compartment 8.

- Amount of Tetracycline or Minocycline (μg) detected after 6 hours (pH 5.0, receiver 0.9% saline): 0.17 µg
- Amount of Tetracycline or Minocycline (μg) detected after 6 hours (pH 6.2, receiver 0.9% saline): 0.55 µg
- Amount of Tetracycline or Minocycline (μg) detected after 6 hours (pH 7.0, receiver 0.9% saline): 0.31 µg
Structure (SMILES): CN(C)c1ccc(O)c2c1C[C@H]1C[C@H]3[C@H](N(C)C)C(O)=C(C(N)=O)C(=O)[C@@]3(O)C(O)=C1C2=O [Minocycline HCl]

Reference: patent publication US20080188445A1, “TETRACYCLINE COMPOSITIONS FOR TOPICAL ADMINISTRATION” (WARNER CHILCOTT COMPANY INC., priority 2007, published 2008)
